Reference: patent US9085576B2 (AMGEN INC., priority 2013, dated 2015)

How the values were obtained:
[1] = molecular target: Beta Secretase enzyme (BACE) (Homo sapiens (Human), UniProt P56817); test: In vitro enzymatic BACE FRET assay; assay type: biochemical; settings: read-out: BACE1 Enzyme assay IC50
[2] = molecular target: Cathepsin D (Cat D) (Homo sapiens (Human), UniProt P07339); test: In vitro enzymatic Cathepsin D (Cat D) FRET assay; assay type: biochemical; settings: read-out: CatD IC50
Cathepsin D (Cat D), sequence (P07339 65-412, species assumed): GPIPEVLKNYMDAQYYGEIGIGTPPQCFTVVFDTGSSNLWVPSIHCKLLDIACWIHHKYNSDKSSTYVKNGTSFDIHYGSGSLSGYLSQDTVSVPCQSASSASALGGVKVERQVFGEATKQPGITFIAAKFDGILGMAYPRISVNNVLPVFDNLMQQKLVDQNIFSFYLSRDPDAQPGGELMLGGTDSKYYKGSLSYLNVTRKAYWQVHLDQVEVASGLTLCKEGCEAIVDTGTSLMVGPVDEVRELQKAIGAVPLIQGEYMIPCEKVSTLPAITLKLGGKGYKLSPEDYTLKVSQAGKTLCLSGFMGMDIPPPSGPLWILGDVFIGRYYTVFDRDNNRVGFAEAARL

[3] = molecular target: BACE (Homo sapiens (Human), UniProt P56817); test: In vitro BACE cell-based assay (Aβ40 in conditioned medium, sandwich ELISA)
BACE, sequence (P56817 46-501, species assumed): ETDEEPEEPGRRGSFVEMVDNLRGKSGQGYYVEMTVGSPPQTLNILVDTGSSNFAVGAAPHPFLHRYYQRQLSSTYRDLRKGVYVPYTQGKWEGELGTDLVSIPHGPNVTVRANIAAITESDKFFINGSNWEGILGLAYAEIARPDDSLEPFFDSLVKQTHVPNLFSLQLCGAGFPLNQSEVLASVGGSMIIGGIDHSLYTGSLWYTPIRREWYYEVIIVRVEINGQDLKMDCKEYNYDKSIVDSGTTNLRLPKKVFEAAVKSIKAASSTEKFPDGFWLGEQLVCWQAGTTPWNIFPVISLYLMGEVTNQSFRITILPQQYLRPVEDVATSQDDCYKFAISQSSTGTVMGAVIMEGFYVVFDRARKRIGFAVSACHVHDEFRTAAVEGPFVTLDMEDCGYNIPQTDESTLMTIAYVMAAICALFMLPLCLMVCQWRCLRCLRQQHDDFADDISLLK

Beta Secretase enzyme (BACE), sequence (P56817 46-501): as the sequence (P56817 46-501, species assumed) above

Compound	IC50 [1] [µM]	IC50 [2] [µM]	IC50 [3] [µM]
COC[C@@]1(c2cc(NC(=O)c3ccc(Cl)cn3)ccc2F)N=C(N)O[C@H]2C[C@H]21 [Example 83, N-(3-((1 S,5R,6S)-3-amino-5-(methoxymethyl)-2-oxa-4-azabicyclo[4.1.0]hept-3-en-5-yl)-4-fluorophenyl)-5-chloropicolinamide]	> 40	> 400	> 15.6
NC1=N[C@](CF)(c2cc(NC(=O)c3cc4ccccc4cn3)ccc2F)[C@H]2C[C@H]2O1 [Example 202, N-(3-((1R,5S,6R)-3-amino-5-(fluoromethyl)-2-oxa-4-azabicyclo[4.1.0]hept-3-en-5-yl)-4-fluorophenyl) isoquinoline-3-carboxamide]	0.499	430	0.159
Cc1cc(C#N)cnc1C(=O)Nc1cc(F)c(C)c([C@]2(C(F)F)N=C(N)O[C@H]3C[C@H]32)c1 [Example 311, N-(3-((1S,5R,6S)-3-amino-5-(difluoromethyl)-2-oxa-4-azabicyclo[4.1.0]hept-3-en-5-yl)-5-fluoro-4-methylphenyl)-5-cyano-3-methylpicolinamide]	0.0466	294	0.0174
COc1cnc(C(=O)Nc2ccc(Cl)c([C@@]3(CF)N=C(N)O[C@@H]4C[C@@H]43)c2)cn1 [Example 272]	0.143	1730	0.0274
COc1cc(C#N)cnc1C(=O)Nc1cc(Cl)c(F)c([C@@]2(CF)N=C(N)O[C@@H]3C[C@@H]32)c1 [Example 86, N-(3-((1R,5S,6R)-3-amino-5-(fluoromethyl)-2-oxa-4-azabicyclo[4.1.0]hept-3-en-5-yl)-5-chloro-4-fluorophenyl)-5-cyano-3-methoxypicolinamide]	0.0759	892	0.0094
NC1=N[C@](CF)(c2cc(NC(=O)c3nn(C(F)F)cc3Cl)ccc2F)[C@H]2C[C@H]2O1 [Example 164, N-(3-((1R,5S,6R)-3-amino-5-(fluoromethyl)-2-oxa-4-azabicyclo[4.1.0]hept-3-en-5-yl)-4-fluorophenyl)-4-chloro-1-(difluoromethyl)-1H-pyrazole-3-carboxamide]	0.0232	950	0.0109
NC1=N[C@@](CF)(c2cc(NC(=O)c3ccc(Cl)cn3)ccc2F)[C@@H]2C[C@@H]2O1 [Example 118, N-(3-((1S,5R,6S)-3-amino-5-(fluoromethyl)-2-oxa-4-azabicyclo[4.1.0]hept-3-en-5-yl)-4-fluorophenyl)-5-chloropicolinamide]	1.56	1280	0.221
NC1=N[C@](CF)(c2cc(NC(=O)c3ccc(OCF)cn3)ccc2Cl)[C@H]2C[C@H]2O1 [Example 183, N-(3-((1R,5S,6R)-3-amino-5-(fluoromethyl)-2-oxa-4-azabicyclo[4.1.0]hept-3-en-5-yl)-4-chlorophenyl)-5-(fluoromethoxy) picolinamide]	0.0998	882	0.0218
COc1ccc(C(=O)Nc2ccc(F)c([C@]3(CF)N=C(N)O[C@H]4C[C@H]43)c2F)nc1 [Example 78, N-(3-((1S,5R,6S)-3-amino-5-(fluoromethyl)-2-oxa-4-azabicyclo[4.1.0]hept-3-en-5-yl)-2,4-difluorophenyl)-5-methoxypicolinamide]	> 40	> 400	> 15.6
N#Cc1ccc(C(=O)Nc2cnc(F)c([C@@]3(CF)N=C(N)O[C@@H]4C[C@@H]43)c2)nc1 [Example 204, N-(5-((1R,5S,6R)-3-amino-5-(fluoromethyl)-2-oxa-4-azabicyclo[4.1.0]hept-3-en-5-yl)-6-fluoropyridin-3-yl)-5-cyanopicolinamide]	0.145	294	0.0335
N#Cc1cnc(C(=O)Nc2ccc(F)c([C@]3(CF)N=C(N)O[C@H]4C[C@H]43)c2)c(Cl)c1 (racemic) [Example 227, N-(3-((1(R,S),5(S,R),6(R,S))-3-amino-5-(fluoromethyl)-2-oxa-4-azabicyclo[4.1.0]hept-3-en-5-yl)-4-fluorophenyl)-3-chloro-5-cyanopicolinamide]	0.0469	2260	0.0105
Cc1nc(OCC(F)(F)F)cnc1C(=O)Nc1cc(F)c(Cl)c([C@]2(CF)N=C(N)O[C@H]3C[C@H]32)c1 (racemic) [Example 159, N-(3-([1(S,R),5(R,S),6(S,R)]-3-amino-5-(fluoromethyl)-2-oxa-4-azabicyclo[4.1.0]hept-3-en-5-yl)-4-chloro-5-fluorophenyl)-3-methyl-5-(2,2,2-trifluoroethoxy)pyrazine-2-carboxamide]	0.226	1050	0.466
Cc1cc(C(F)(F)F)cnc1C(=O)Nc1ccc(Cl)c([C@@]2(CF)N=C(N)O[C@@H]3C[C@@H]32)c1 [Example 125, N-(3-((1R,5S,6R)-3-amino-5-(fluoromethyl)-2-oxa-4-azabicyclo[4.1.0]hept-3-en-5-yl)-4-chlorophenyl)-3-methyl-5-(trifluoromethyl) picolinamide]	0.0806	> 400	0.0086
NC1=N[C@](CF)(c2cc(Nc3nccc4cc(Cl)cnc34)ccc2Cl)[C@H]2C[C@H]2O1 [Example 359, (1R,5S,6R)-5-(2-chloro-5-((3-chloro-1,7-naphthyridin-8-yl)amino)phenyl)-5-(fluoromethyl)-2-oxa-4-azabicyclo[4.1.0]hept-3-en-3-amine]	0.0291	251	0.0656
N#Cc1cnc(C(=O)Nc2ccc(F)c([C@@]3(C(F)F)N=C(N)O[C@@H]4C[C@@H]43)c2)c(C(F)F)c1 [Example 395, N-(3-((1R,5S,6R)-3-amino-5-(difluoromethyl)-2-oxa-4-azabicyclo[4.1.0]hept-3-en-5-yl)-4-fluorophenyl)-5-cyano-3-(difluoromethyl)picolinamide]	0.0144	477	0.0737
CSc1c(F)cc(NC(=O)c2ccc(Cl)cn2)cc1[C@@]1(CF)N=C(N)O[C@@H]2C[C@@H]21 (racemic) [Example 141, N-(3-(((1S,R),(5S,R),(6R,S))-3-amino-5-(fluoromethyl)-2-oxa-4-azabicyclo[4.1.0]hept-3-en-5-yl)-5-fluoro-4-(methylthio)phenyl)-5-chloropicolinamide]	> 40	655	> 15.6

Now from value to compound:

IC50 [1] [µM]	IC50 [2] [µM]	IC50 [3] [µM]	Compound
9.42	85.5	4.94	NC1=N[C@@](c2cc(NC[C@H]3C[C@H]3c3ccccc3)ccc2F)(C(F)F)[C@H]2C[C@H]2O1 [Example 372, (1R,5S,6R)-5-(difluoromethyl)-5-(2-fluoro-5-((((1(S,R),2(R,S))-2-phenylcyclopropyl)methyl)amino)phenyl)-2-oxa-4-azabicyclo[4.1.0]hept-3-en-3-amine]
0.0141	252	0.0222	NC1=N[C@@](c2cc(NC(=O)c3ncc(Br)cc3C(F)F)ccc2F)(C(F)F)[C@H]2C[C@H]2O1 [Example 290, N-(3-((1R,5S,6R)-3-amino-5-(difluoromethyl)-2-oxa-4-azabicyclo[4.1.0]hept-3-en-5-yl)-4-fluorophenyl)-5-bromo-3-(difluoromethyl) picolinamide]
13.7	63.6	8.85	NC1=N[C@@](c2cc(NCC3(c4ccc(Cl)cc4)CC3)ccc2F)(C(F)F)[C@H]2C[C@H]2O1 [Example 370, (1R,5S,6R)-5-(5-(((1-(4-chlorophenyl)cyclopropyl)methyl)amino)-2-fluorophenyl)-5-(difluoromethyl)-2-oxa-4-azabicyclo[4.1.0]hept-3-en-3-amine]
> 40	> 400	> 15.6	NC1=N[C@@](c2cc(NC(=O)CC3CCCCC3)ccc2F)(C(F)F)[C@H]2C[C@H]2O1 [Example 241, N-(3-((1R,5S,6R)-3-amino-5-(difluoromethyl)-2-oxa-4-azabicyclo[4.1.0]hept-3-en-5-yl)-4-fluorophenyl)-2-cyclohexylacetamide]
2.51	460	2.24	Cc1ncc(Cl)nc1C(=O)Nc1ccc(F)c([C@@]2(C(F)F)N=C(N)O[C@@H]3C[C@@H]32)c1 (stereo in doubt) [Example 54, N-(3-((1R,5S,6R)-3-amino-5-(difluoromethyl)-2-oxa-4-azabicyclo[4.1.0]hept-3-en-5-yl)-4-fluorophenyl)-6-chloro-3-methylpyrazine-2-carboxamide]
0.224	596	0.122	COc1cnc2c(Nc3ccc(F)c([C@@]4(C(F)F)N=C(N)O[C@@H]5C[C@@H]54)c3)ncnc2c1 [Example 364, (1R,5S,6R)-5-(difluoromethyl)-5-(2-fluoro-5-((7-methoxypyrido[3,2-d]pyrimidin-4-yl)amino)phenyl)-2-oxa-4-azabicyclo[4.1.0]hept-3-en-3-amine]
0.0559	2990	0.0524	NC1=N[C@@](c2cc(NC(=O)c3ncc(Cl)cn3)ccc2F)(C(F)F)[C@H]2C[C@H]2O1 [Example 119, N-(3-((1R,5S,6R)-3-amino-5-(difluoromethyl)-2-oxa-4-azabicyclo[4.1.0]hept-3-en-5-yl)-4-fluorophenyl)-5-chloropyrimidine-2-carboxamide]
0.118	908	0.0765	COc1cc(Cl)cnc1C(=O)Nc1ccc(F)c([C@@]2(C(F)F)N=C(N)O[C@@H]3C[C@@H]32)c1 [Example 28, N-(3-((1R,5S,6R)-3-amino-5-(difluoromethyl)-2-oxa-4-azabicyclo[4.1.0]hept-3-en-5-yl)-4-fluorophenyl)-5-chloro-3-methoxypicolinamide]
> 40	270	> 15.6	C[C@H](C(=O)Nc1ccc(F)c([C@@]2(C(F)F)N=C(N)O[C@@H]3C[C@@H]32)c1)c1ccc(Cl)cc1 (mixture of isomers) [Example 252, N-(3-((1R,5S,6R)-3-amino-5-(difluoromethyl)-2-oxa-4-azabicyclo[4.1.0]hept-3-en-5-yl)-4-fluorophenyl)-2-(4-chlorophenyl) propanamide]
